The source of these data is patent US9228952B2, “Hematopoietic stem cell identification probe” (CANON KABUSHIKI KAISHA, priority 2012, dated 2016).

Data set [1] deals with hematopoietic stem cells (bone marrow cells). In words: Identification of hematopoietic stem cells in stained bone marrow cells by FACS with antibody markers (Experimental Examples 1-17, Comparative Examples 1-2). The arrangement: key to Identification of hematopoietic stem cells: A: Hematopoietic stem cells are identified very well.; B: Hematopoietic stem cells are identified well.; C: Hematopoietic stem cells are poorly identified. To be noted: for Identification of hematopoietic stem cells: mouse bone marrow cells, FACS. Format: cell-based, C57BL/6 mouse. The protocol:
A 1 mM DMSO solution of the compound 7 was added to an HBSS buffer containing 2% of FBS and 10 mM of HEPES, so as to obtain a stain of the compound 7 in a concentration of 1 μM. Bone marrow cells collected from a femur of a C57BL/6 mouse (of 12 weeks old) and hemolyzed were added to the stain in an amount of 1×10^6 cells/mL for exposure at 37° C. for 30 minutes. After the exposure, the cells were precipitated by centrifuge for removing the stain, and a blocking treatment was performed with 2.4G2 (anti-mouse Fcγ receptor II/III antibody-producing hybridoma supernatant). The blocked cells were further subjected to immunofluorescence staining with an anti c-Kit antibody, an anti Sca-1 antibody, an anti CD34 antibody and Lineage Marker. Furthermore, the cells were subjected to dead cell staining with TO-PRO-3. The respective antibodies used for fluorescence staining were selected so that the respective fluorescence wavelengths might not overlap one another and might not overlap the fluorescence wavelength of the compound 7 and the fluorescence wavelength of TO-PRO-3. Next, the resulting cells were analyzed with FACS Aria II cell sorter manufactured by BD Biosciences. In the analysis, cell populations having a low TO-PRO-3 signal were regarded as a target, so that the analysis could be performed on a cell population excluding dead cells.
First, fluorescence intensities of the cells obtained by analyzing fluorescence signals derived from the compound 7 based on signal intensities in two channels excited at 488 nm (PE-Cy5; 660/20 nm and PerCP-Cy 5.5; 710/50 nm: center wavelength/wavelength width) were developed into a cytogram.
Furthermore, among Lineage Marker negative cell fractions, cell fractions of Sca-1 positive, c-Kit positive and CD34 negative, which are used as markers for hematopoietic stem cells, were developed into cytograms as illustrated in FIG. 2 with respect to the two fluorescence signals derived from the compound 7 as in FIG. 1. […] Furthermore, merely cells identified by the compound 7 were separated by sorting.
Fluorescence signals derived from the compounds 8 to 23 were analyzed in the same manner as in Experimental Example 1 except that the compound 7 used in Experimental Example 1 was changed to each of the compounds 8 to 23.
Fluorescence signals derived from fluorescein were analyzed in the same manner as in Experimental Example 1 except that the compound 7 used in Experimental Example 1 was changed to fluorescein.
Fluorescence signals derived from Mito Tracker® Green FM were analyzed in the same manner as in Experimental Example 1 except that the compound 7 used in Experimental Example 1 was changed to Mito Tracker® Green FM.
The identification was evaluated in the following three grades A to C: […]
On the technique in general: In flow cytometry, cells or beads pass a laser one at a time.

Data set [2] in a line: Measurement of fluorescence characteristics of compounds (fluorescence spectrophotometer). It is filed as physicochemical. Conditions: 5 μM DMSO solution. Here is the method: With respect to each of the compounds 7 to 23, a 5 μM DMSO solution was prepared, and an excitation wavelength and a fluorescence wavelength were measured by using a fluorescence spectrophotometer FL4500 manufactured by Hitachi High-Technologies Corporation (Table 1).

Data set [3] has as its system c-Kit positive hematopoietic stem cells (bone marrow cells). In words: Experimental Example 19: exposure to compound 7 in the presence of test substances, c-Kit staining, FACS. It is filed as cell-based, mouse. The protocol: Cells collected from a mouse in the same manner as in Experimental Example 1 were exposed to the compound 7 in the presence of test substances of fumitremorgin C and digoxin (both in 1 μM). After performing a blocking treatment in the same manner as in Experimental Example 1, the resulting cells were stained with an anti c-Kit antibody, that is, a marker for hematopoietic stem cells and hematopoietic precursor cells. The cells were further subjected to the dead cell staining with TO-PRO-3. Next, the cells were analyzed with FACS Aria II cell sorter manufactured by BD Biosciences. In the analysis, cell populations having a low TO-PRO-3 signal were regarded as a target, so that the analysis could be performed on a cell population excluding dead cells.
In other words, hematopoietic stem cell groups that were c-Kit positive and negative for the compound 7-derived signal were confirmed to be reduced by adding the test substances.

Data set [4] deals with CD48 negative and CD150 positive fraction of bone marrow cells. The experiment in a line: Experimental Example 18: compound 7 staining with anti CD48 / anti CD150 antibody markers, flow cytometry. Format: cell-based, mouse. Conditions: cytogram of two compound 7-derived fluorescence signals. The source says: Cells collected from a mouse were subjected to the exposure to the compound 7 and a blocking treatment in the same manner as in Experimental Example 1. In order to evaluate incorporation of antibody markers, used as test substances, of an anti CD48 antibody and an anti CD150 antibody by hematopoietic stem cells, the blocked cells were further stained with the anti CD48 antibody and the anti CD150 antibody. Furthermore, the resulting cells were subjected to dead cell staining with TO-PRO-3. Next, the cells were analyzed with an FACS Canto II flow cytometer manufactured by BD Biosciences. In the analysis, cell populations having a low TO-PRO-3 signal were regarded as a target, so that the analysis could be performed on a cell population excluding dead cells.

The mark [5] stands for this setting: cells exposed to compound 7 in the presence of test substance 1 μM.

For `CCCN1C(=O)/C(=c2\s/c(=C/c3ccc4c(c3)C3CCCC3N4c3ccc(OC)cc3)c(=O)n2CC)SC1=S` (stereo not shown) [Compound 18], the “Identification of hematopoietic stem cells” value (from here on “Identification”) in data set [1] (stain 1 μM, 37° C., 30 minutes) is recorded as “A”. Besides, in data set [2], the Excitation wavelength λex came out at 539 nm and the Fluorescence wavelength λem stood at 636 nm.
The matching figures for `COc1ccc(N2c3ccc(/C=c4/s/c(=C5/SC(=S)N(Cc6ccccc6)C5=O)n(CC(=O)O)c4=O)cc3C3CCCC32)cc1` (stereo not shown) [Compound 11]: “A”, 542 nm and 643 nm.
The matching figures for `CCN1C(=O)/C(=c2\s/c(=C/c3cc(Br)c4c(c3)C3CCCC3N4c3ccc(Br)cc3)c(=O)n2CC(=O)O)SC1=S` (stereo not shown) [Compound 8]: “A”, 513 nm and 600 nm.
The like results for `O=C(O)Cn1c(=O)/c(=C\c2ccc3c(c2)C2CCCC2N3Cc2ccccc2)s/c1=C1/SC(=S)N(Cc2ccccc2)C1=O` (stereo not shown) [Compound 10] were, in that order, “A”, 540 nm and 614 nm.
`CCN1C(=O)/C(=c2\s/c(=C/c3ccc4c(c3)C3CCCC3N4c3ccc(SC)cc3)c(=O)n2CC(=O)O)SC1=S` (stereo not shown) [Compound 13]: in data set [1] (stain 1 μM, 37° C., 30 minutes), the “Identification” value is “A”. In addition, in data set [2], the Excitation wavelength λex amounted to 539 nm and the Fluorescence wavelength λem was found to be 636 nm.
For `CCN1C(=O)/C(=c2\s/c(=C/c3ccc4c(c3)C3CCCC3N4Cc3ccccc3)c(=O)n2CC(=O)O)SC1=S` (stereo not shown) [Compound 17], in data set [1] (stain 1 μM, 37° C., 30 minutes), the “Identification” value is recorded as “A”. Moreover, in data set [2], the Excitation wavelength λex was 535 nm and the Fluorescence wavelength λem was 612 nm.
The matching figures for `CCN1C(=O)S/C(=c2/s/c(=C/c3ccc4c(c3)C3CCCC3N4Cc3ccccc3)c(=O)n2CC(=O)O)C1=O` (stereo not shown) [Compound 16]: “B”, 500 nm and 578 nm.
Take `O=C1OC2(c3ccc(O)cc3Oc3cc(O)ccc32)c2ccccc21` [Fluorescein, fluorescein, reference compound]: the “Identification” value in data set [1] (stain 1 μM, 37° C., 30 minutes) is given as “C (not stained”.
`CCN1C(=O)/C(=c2\s/c(=C/c3ccc4c(c3)C3CCCC3N4c3cccc(SC)c3)c(=O)n2CC(=O)O)SC1=S` (stereo not shown) [Compound 21]: in data set [1] (stain 1 μM, 37° C., 30 minutes), the “Identification” value is “A”. In data set [2], this molecule showed an Excitation wavelength λex of 530 nm and a Fluorescence wavelength λem of 612 nm.
On to `COc1ccc2c3c([nH]c2c1)[C@H](C=C(C)C)N1C(=O)[C@@H]2CCCN2C(=O)[C@@H]1C3` [fumitremorgin C], for which the “c-Kit positive, compound 7-derived signal negative hematopoietic stem cells in the whole cells” value (“c-Kit positive … in the whole cells” below) in data set [3] (setting [5]) is listed as 0.00%.
As for `CCN1C(=O)/C(=c2\s/c(=C/c3cc(Br)c4c(c3)C3CCCC3N4Cc3ccccc3)c(=O)n2CC(=O)O)SC1=S` (stereo not shown) [Compound 14], the “Identification” value in data set [1] (stain 1 μM, 37° C., 30 minutes) is “A”. In data set [2], this molecule had an Excitation wavelength λex of 596 nm and a Fluorescence wavelength λem of 520 nm.
The like results for `CCN1C(=O)/C(=c2\s/c(=C/c3ccc4c(c3)C3CCCC3N4c3ccc(OC)cc3)c(=O)n2CC(=O)O)SC1=S` (stereo not shown) [Compound 9] were, in that order, “A”, 543 nm and 638 nm.
Regarding `CCCCN1C(=O)/C(=c2\s/c(=C/c3ccc4c(c3)C3CCCC3N4c3ccc(OC)cc3)c(=O)n2CC)SC1=S` (stereo not shown) [Compound 7], the “Whether hematopoietic stem cells can be identified (in words)” value in data set [1] (same manner as Experimental Example 1) is “hematopoietic stem cells can be identified”. Also, in data set [1] (stain 1 μM, 37° C., 30 minutes), the “Identification” value is “A”. In addition, the “Lineage Marker negative, Sca-1 positive, c-Kit positive and CD34 negative hematopoietic stem cell fractions found in cell population having low incorporation of the probe” value in data set [1] (stain 1 μM, 37° C., 30 minutes, two channels excited at 488 nm) is given as 94.7%. In data set [2], the Excitation wavelength λex is 539 nm and the Fluorescence wavelength λem turned out to be 638 nm. Also, the “Cells of CD48 negative and CD150 positive fraction present in region where hematopoietic stem cells were identified” value in data set [4] is 89.4%. Further, in data set [3] (in the absence of an inhibitor (w/o inhibitors)), the “c-Kit positive … in the whole cells” value turned out to be 0.75%.
As for `O=C(O)CNC(=O)CN1C(=O)/C(=C\c2ccc3c(c2)C2CCCC2N3c2ccccc2)SC1=S` (stereo not shown) [Compound 23], the “Identification” value in data set [1] (stain 1 μM, 37° C., 30 minutes) is reported as “A”. In data set [2], this molecule returned an Excitation wavelength λex of 499 nm and a Fluorescence wavelength λem of 598 nm.
With `CCn1c(=O)/c(=C\c2ccc3c(c2)C2CCCC2N3c2ccccc2)s/c1=C1/SC(=S)N(CC(=O)O)C1=O` (stereo not shown) [Compound 20], the “Identification” value in data set [1] (stain 1 μM, 37° C., 30 minutes) is “B”. For the same molecule, in data set [2], the Excitation wavelength λex stood at 533 nm and the Fluorescence wavelength λem was determined as 615 nm.
The matching figures for `C=CCN1C(=O)/C(=c2\s/c(=C/c3ccc4c(c3)C3CCCC3N4c3ccc(OC)cc3)c(=O)n2CC(=O)O)SC1=S` (stereo not shown) [Compound 15]: “A”, 504 nm and 606 nm.
The matching figures for `COc1ccc(N2c3ccc(/C=C4/SC(=S)N(CC(=O)NCC(=O)O)C4=O)cc3C3CCCC32)cc1` (stereo not shown) [Compound 22]: “A”, 511 nm and 626 nm.
Take `C[C@H]1O[C@@H](O[C@H]2[C@@H](O)C[C@H](O[C@H]3[C@@H](O)C[C@H](O[C@H]4CC[C@@]5(C)[C@H](CC[C@@H]6[C@@H]5C[C@@H](O)[C@]5(C)[C@@H](C7=CC(=O)OC7)CC[C@]65O)C4)O[C@@H]3C)O[C@@H]2C)C[C@H](O)[C@@H]1O` [digoxin]: the “c-Kit positive … in the whole cells” value in data set [3] (setting [5]) worked out at 0.50%.
With `CCN1C(=O)/C(=c2\s/c(=C/c3ccc4c(c3)C3CCCC3N4c3ccccc3)c(=O)n2CC(=O)O)SC1=S` (stereo not shown) [Compound 12], the “Identification” value in data set [1] (stain 1 μM, 37° C., 30 minutes) was “A”. In data set [2], this molecule returned an Excitation wavelength λex of 531 nm and a Fluorescence wavelength λem of 615 nm.
The matching figures for `CCCCCN1C(=O)/C(=c2\s/c(=C/c3ccc4c(c3)C3CCCC3N4c3ccc(OC)cc3)c(=O)n2CC)SC1=S` (stereo not shown) [Compound 19]: “B”, 538 nm and 638 nm.
